In patent US8329902B2, “Optically pure dihydropyrimidine compounds and their uses for the preparation of a medicament for treatment and prevention of viral diseases” (Beijing Molecule Science And Technology Co., Ltd., priority 2006, dated 2012):

Assays:
HBV DNA = assay: Antiviral activity: inhibition of HBV DNA in supernatant of HepG 2.2.15 cells (dot blot hybridization); format: cell-based; conditions: Hepatitis B virus, HepG2.2.15, 192 h, 8 days incubation, 50% reduction of type B hepatitis-specific DNA band
Description: The antiviral effection of the compound of the present invention is determined according to the methods described by Sells, et al in (M. A. Sells M. L. Chen G. Proc. Natl. Acad. Sci. 1987, 84, 1005-1009) and Korba, et al (B. E. Korba, J. L. Gerin Antiviral Research 1992, 19, 55-70).
(§1) The antiviral test was carried out in a 96-cell microtiter plate. The first column of the plate only contained a culture medium for growth and HepG 2.2.15 cells, as a control. First, a stock solution (50 mmol) of a test compound was dissolved in DMSO, and further diluted with a culture medium for growth for HepG 2.2.15 cells. Usually, the compound of the present invention was transferred by suction at a test concentration of 100 μg/ml (the first test concentration) to each cell of the second column of the microtiter plate, and then diluted with the culture medium for growth plus 2% fetal bovine serum (25 μL), by 2 times once, up to […] at the maximum.
(§2) Then, 225 μL of a suspension of HepG 2.2.15 cells (5×10^4 cells/ml) in the culture medium fro growth plus 2% fetal bovine serum was added to each pore of the 96-cell microtiter plate.
(§3) The test mixture was incubated under the conditions of 37° C., 5% CO2 for 4 days. Then, the supernatant was removed by suction, and to each pore 225 μL of a new-prepared culture medium was added. Again, the compound of the present invention was added by a solution of 25 μL. The obtained mixture was further incubated for 4 days.
Thereafter, the supernatant was collected, and sucked in vacuum to a 96-cell dot blot chamber covered by nylon film (used in accordance with the directions for use given by the manufacturer).
After the supernatant was transferred onto the nylon film of the dot blot device (as described above), the supernatant of HepG 2.2.15 cells was denaturated (1.5 M NaCl/0.5 M NaOH), neutralized (3 M NaCl/0.5 M Tris. HCl, pH 7.5) and washed (2×SSC). Then, the filter film was kept at 120° C. for 2-4 hours, whereby DNA was baked on the filter film.
Usually, viral DNA of HepG 2.2.15 cells treated on the nylon filter film was detected by using a non-radioactive digoxigenin labelled type B hepatitis-specific DNA probe. Wherein, each time the probe was labelled with digoxigenin, purified and hybridized according to the directions for use given by the manufacturer.
Briefly, pre-hybridization and hybridization were conducted with 5×SSC, 1× blocking agent, 0.1% N-lauroyl sarcosine, 0.02% SDS and 100 μg sperm DNA of black carp. After pre-hybridization at 60° C. for 30 min, a specific hybridization (at 60° C. for 14 hr) was conducted with 20-40 ng/ml digoxigenin labelled denaturated I-BV specific DNA. Then, the filter film was washed, followed by digoxigenin antibody detection for HBV DNA. […]

HepG 2.2.15 cells = assay: Cytotoxicity in HepG 2.2.15 cells (cell morphology by microscope after 8 days, Reed & Muench); format: cell-based; conditions: pathological change of cells after 8 days
Description: as §1, §2, §3
Prior to collection of the supernatant for determination of the antiviral effect, the cytotoxicity variation of HepG 2.2.15 cells was investigated by using optical microscopic technique or biochemical test method (e.g., Alamar Blue dyeing or Trypan Blue dyeing).
The substance-induced change in cytotoxicity in HepG 2.2.15 cells or change in inhibition of the cells could be determined by using, e.g., optical microscopic technique, and expressed by the change of cell morphology. Such substance-induced change, e.g., cell lysis, vacuolus formation or change in cell morphology, in HepG 2.2.15 cells was apparent as compared with the untreated cells. Taking the observed pathological change of cells as index, the pathological change of cells was observed under microscope after 8 days, a complete destroy being indicated as 4; 75% being indicated as 3; 50% being indicated as 2; 25% being indicated as 1; and no pathological change being indicated as 0. The average extents of pathological change of cells and the suppression percentages at various concentrations were calculated. According to Reed & Muench method, a half toxic concentration (TC50) and a maximum non-toxic concentration (TC0) were calculated.
TC50 refers to the concentration of the compound of the present invention when 50% of cells have a similar morphology to the corresponding cells as a control.

SMILES	IC50 (HBV DNA)	TD50 (HepG 2.2.15 cells)	melting point
CCOC(=O)C1=C(C)NC(c2cncs2)=N[C@H]1c1ccc(F)cc1Cl [Example 7, (R)-4-(2-chloro-4-fluorophenyl)-6-methyl-2-(5-thiazolyl)-1,4-dihydropyrimidin-5-ethylcarboxylate]	1800 nM	>12.5 µM	–
CCOC(=O)C1=C(C)NC(c2nccs2)=N[C@H]1c1ccc(F)cc1Cl [Example 2, (R)-4-(2-chloro-4-fluorophenyl)-6-methyl-2-(2-thiazolyl)-1,4-dihydropyrimidin-5-ethylcarboxylate]	< 800 nM	>62.9 µM	–
CCOC(=O)C1=C(C)NC(c2c(F)cc(F)cc2F)=N[C@H]1c1ccc(F)cc1Cl [Example 5, (R)-4-(2-chloro-4-fluorophenyl)-6-methyl-2-(2,4,6-trifluorophenyl)-1,4-dihydropyrimidin-5-ethylcarboxylate]	1300 nM	13.8 µM	162 to 165 °C
CC1=C(C(=O)N[C@H](C)c2ccccc2)[C@H](c2ccc(F)cc2Cl)N=C(c2nccs2)N1	–	–	224 to 226 °C
CC1=C(C(=O)OCC(F)(F)F)[C@H](c2ccc(F)cc2Cl)N=C(c2nccs2)N1 [Example 3, (R)-4-(2-chloro-4-fluorophenyl)-6-methyl-2-(2-thiazolyl)-1,4-dihydropyrimidin-5-trifluoroethylcarboxylate]	5100 nM	37.4 µM	–
